# According to ChEMBL document CHEMBL6078729, “Synthetic glycol-split heparin tri- and tetrasaccharides provide new insights into structural peculiarities for antiheparanase activity” (Bioorg Med Chem, 2025):
# Target: T1, Heparanase (Homo sapiens, UniProt Q9Y251)
# T1 sequence (Q9Y251 whole entry): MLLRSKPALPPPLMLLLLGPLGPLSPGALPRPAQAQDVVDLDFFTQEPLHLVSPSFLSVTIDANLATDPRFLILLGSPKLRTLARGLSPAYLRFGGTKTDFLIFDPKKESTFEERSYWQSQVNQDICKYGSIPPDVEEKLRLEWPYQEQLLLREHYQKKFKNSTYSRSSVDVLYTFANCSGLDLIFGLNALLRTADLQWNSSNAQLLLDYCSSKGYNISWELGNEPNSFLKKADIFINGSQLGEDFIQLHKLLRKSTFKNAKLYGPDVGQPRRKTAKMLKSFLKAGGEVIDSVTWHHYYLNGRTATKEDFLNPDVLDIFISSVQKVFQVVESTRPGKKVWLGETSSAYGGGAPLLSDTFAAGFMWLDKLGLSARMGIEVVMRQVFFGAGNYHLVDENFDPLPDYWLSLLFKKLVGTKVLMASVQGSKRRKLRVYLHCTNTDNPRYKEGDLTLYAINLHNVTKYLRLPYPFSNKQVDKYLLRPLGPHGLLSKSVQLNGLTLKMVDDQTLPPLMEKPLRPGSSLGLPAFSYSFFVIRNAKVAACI
# Test: Inhibition of recombinant human heparanase assessed as fondaparinux cleavage by measuring disaccharide by colorimetric analysis
row,SMILES,IC50 [µM]
1,CO[C@H]1O[C@H](COS(=O)(=O)O)[C@@H](O[C@@H]2O[C@@H](C(=O)O)[C@@H](O[C@H]3O[C@H](COS(=O)(=O)O)[C@@H](O[C@@H]4O[C@@H](C(=O)O)[C@@H](OC)[C@H](O)[C@H]4O)[C@H](O)[C@H]3NS(=O)(=O)O)[C@H](O)[C@H]2O)[C@H](O)[C@H]1NS(=O)(=O)O,> 85.3
2,CO[C@H]1O[C@H](COS(=O)(=O)O)[C@@H](O[C@@H](CO)O[C@H](C(=O)O)[C@@H](CO)O[C@H]2O[C@H](COS(=O)(=O)O)[C@@H](OC)[C@H](O)[C@H]2NS(=O)(=O)O)[C@H](O)[C@H]1NS(=O)(=O)O,76.8
3,CO[C@H]1O[C@H](COS(=O)(=O)O)[C@@H](O[C@H](O[C@H](C(=O)O)[C@H](O[C@H]2O[C@H](COS(=O)(=O)O)[C@@H](OC)[C@H](O)[C@H]2NS(=O)(=O)O)C(=O)O)C(=O)O)[C@H](O)[C@H]1NS(=O)(=O)O,71.5
4,CO[C@H]1O[C@H](COS(=O)(=O)O)[C@@H](O[C@@H]2O[C@H](C(=O)O)[C@@H](O[C@H]3O[C@H](COS(=O)(=O)O)[C@@H](OC)[C@H](O)[C@H]3NS(=O)(=O)O)[C@H](O)[C@H]2O)[C@H](O)[C@H]1NS(=O)(=O)O,> 103
5,CO[C@H]1O[C@H](COS(=O)(=O)O)[C@@H](O[C@@H]2O[C@@H](C(=O)O)[C@@H](O[C@H]3O[C@H](COS(=O)(=O)O)[C@@H](OC)[C@H](O)[C@H]3NS(=O)(=O)O)[C@H](O)[C@H]2O)[C@H](O)[C@H]1NS(=O)(=O)O,> 103
6,CO[C@H]1O[C@H](COS(=O)(=O)O)[C@@H](O[C@H](O[C@@H](C(=O)O)[C@H](O[C@H]2O[C@H](COS(=O)(=O)O)[C@@H](OC)[C@H](O)[C@H]2NS(=O)(=O)O)C(=O)O)C(=O)O)[C@H](O)[C@H]1NS(=O)(=O)O,> 95.4

# Stronger by IC50, values ahead:
row,IC50 [µM],SMILES
1,37.9,CO[C@H]1O[C@H](COS(=O)(=O)O)[C@@H](O[C@@H](CO)O[C@@H](C(=O)O)[C@@H](CO)O[C@H]2O[C@H](COS(=O)(=O)O)[C@@H](OC)[C@H](O)[C@H]2NS(=O)(=O)O)[C@H](O)[C@H]1NS(=O)(=O)O
2,7.57,CO[C@H]1O[C@H](COS(=O)(=O)O)[C@@H](O[C@H](O[C@@H](C(=O)O)[C@@H](O[C@H]2O[C@H](COS(=O)(=O)O)[C@@H](O[C@H](O[C@@H](C(=O)O)[C@@H](OC)C(=O)O)C(=O)O)[C@H](O)[C@H]2NS(=O)(=O)O)C(=O)O)C(=O)O)[C@H](O)[C@H]1NS(=O)(=O)O
3,63.7,CO[C@H]1O[C@H](COS(=O)(=O)O)[C@@H](O[C@@H](CO)O[C@@H](C(=O)O)[C@H](CO)O[C@H]2O[C@H](COS(=O)(=O)O)[C@@H](O[C@@H](CO)O[C@@H](C(=O)O)[C@H](CO)OC)[C@H](O)[C@H]2NS(=O)(=O)O)[C@H](O)[C@H]1NS(=O)(=O)O
